test system: HCV replicon; test: HCV replicon replication assay (NPT level by captured ELISA); format: cell-based; conditions: Hepatitis C virus, 72 h; Huh-7 HCV replicon-containing cells, three days incubation; read-out: Activity (inhibition of HCV replicon replication)
Protocol: Compounds claimed herein are tested for the ability to inhibit viral replication of the Hepatitis C replicon in cultured cells in which the HCV replicon construct has been incorporated. The HCV replicon system was described by Bartenschlager, et. al (Science, 285, pp. 110-113 (1999)). The replicon system is predictive of in vivo anti-HCV activity; compounds that are active in humans uniformly evidence activity in the replicon assay.
In this assay HCV replicon containing cells are treated with different concentrations of the test compound to ascertain the ability of the test compound to suppress replication of the HCV replicon. As a positive control, HCV replicon-containing cells are treated with different concentrations of interferon alpha, a known inhibitor of HCV replication. The replicon assay system includes Neomycin Phosphotransferase (NPT) as a component of the replicon itself in order to detect the transcription of replicon gene products in the host cell. Cells in which the HCV replicon is actively replicating have high levels of NPT; the level of NPT is proportional to HCV replication. […] The NPT level of each sample is measured using a captured ELISA.
A protocol for testing compounds for the ability to inhibit viral replication of the Hepatitis C replicon cultured cells in which the replicon construct has been incorporated, follows.
The HCV replicon contains, 5′-3′, the HCV-IRES, the neomycin phosphotransferase (neo) gene, the IRES of encephalomyocarditis virus, which directs translation of HCV sequences NS3 to NS5B, and the 3′-NTR. The sequence of the HCV replicon has been deposited in GenBank (Accession no. AJ242652).
The replicon is transfected into Huh-7 cells using standard methods such as electroporation.
The equipment and materials include, but are not limited to, Huh-7 HCV replicon-containing cells, maintenance media (DMEM (Dulbecco's modified Eagle media) supplemented with 10% FBS, L-glutamine, non-essential amino acids, penicillin (100 units/ml), streptomycin (100 micrograms/ml), and 500 micrograms/ml of Geneticin (G418), screening media (DMEM supplemented with 10% FBS, L-glutamine, non-essential amino acids, penicillin (100 units/ml) and streptomycin (100 micrograms/ml)), 96 well tissue culture plates (flat bottom), 96 well plates (U bottom for drug dilution), Interferon alpha for positive control, fixation reagent (such as methanol: acetone), primary antibody (rabbit anti-NPTII), secondary antibody: Eu—N1 1, and enhancement solution.
HCV replicon-containing cells are rinsed with once PBS once; 2 mls of trypsin are then added. Cells are incubated at 37° C. in a 5% CO2 incubator for 3-5 minutes. 10 mls of complete medium is added to stop the reaction. Cells are blown gently, put into a 15 ml tube, and spun at 1200 rpm for four minutes. The trypsin/medium solution is removed and 5 mls of medium (500 ml DMEM (high glucose)) from BRL catalog #12430-054; 50 mls 10% FBS, 5% Geneticin G418 (50 mg/ml, BRL catalog #10131-035), 5 ml MEM non-essential amino acids (100×BRL #11140-050) and 5 ml pen-strep (BRL #15140-148) is added. The cells and media are mixed carefully
Cells are plated with screening medium (500 ml DMEM (BRL #21063-029), 50 ml FBS (BRL #10082-147) and 5 ml MEM non-essential amino acid (BRL #11140-050) at 6000-7500 cells/100 μl/well of 96 well plate (6-7.5×10^5 cells/10 ml/plate). Plates are placed into 37° C. 5% CO2 incubator overnight.
The following morning, drugs (test compounds or interferon alpha) are diluted in 96 well U bottom plates with media or DMSO/media, depending on the final concentration chosen for screening. Generally for 6 concentrations of each test compounds ranging from 10 micromolar to 0.03 micromolar are applied. 100 μl of the test compound dilution is placed in wells of the 96 well plate containing the HCV replicon cells. Media without drug is added to some wells as a negative controls. DMSO is known to affect cell growth. […]

Row | Compound | EC50 [µM]
1 | COc1ncc(-c2csc(Nc3ccc(Oc4ccc(Cl)cc4)c(C(F)(F)F)c3)n2)cn1 [Cmp 54, N-(4-(4-chlorophenoxy)-3-(trifluoromethyl)phenyl)-4-(2-methoxypyrimidin-5-yl)thiazol-2-amine] | < 1
2 | CCCCCc1nc2cc(Nc3nc(-c4cnc(OC)nc4)cs3)ccc2o1 [Cmp 55, N-(4-(2-methoxypyrimidin-5-yl)thiazol-2-yl)-2-pentylbenzo[d]oxazol-5-amine] | < 1
3 | CCCCCc1nc2cc(Nc3nc(-c4cnc(OC)nc4)c(F)s3)ccc2o1 [Cmp 56, N-(5-fluoro-4-(2-methoxypyrimidin-5-yl)thiazol-2-yl)-2-pentylbenzo[d]oxazol-5-amine] | < 1
4 | CCCCCCCc1nc2cc(Nc3nc(-c4cnc(OC)nc4)c(F)s3)ccc2o1 [Cmp 57, N-(5-fluoro-4-(2-methoxypyrimidin-5-yl)thiazol-2-yl)-2-heptylbenzo[d]oxazol-5-amine] | < 1
5 | Cc1ccc(Nc2nc(-c3cccnc3)c(F)s2)cc1OCCOc1ccccc1 [Cmp 58, 5-fluoro-N-(4-methyl-3-(2-phenoxyethoxy)phenyl)-4-(pyridin-3-yl)thiazol-2-amine] | < 1
6 | Cc1ccc(Nc2nc(-c3cccnc3)c(F)s2)cc1OCC1CCCCC1 [Cmp 59, N-(3-(cyclohexylmethoxy)-4-methylphenyl)-5-fluoro-4-(pyridin-3-yl)thiazol-2-amine] | < 1
7 | Cc1ccc(Nc2nc(-c3ccc(F)cc3)c(F)s2)cc1OCCOc1ccccc1 [Cmp 60, 5-fluoro-4-(4-fluorophenyl)-N-(4-methyl-3-(2-phenoxyethoxy)phenyl)thiazol-2-amine] | < 1
8 | Cc1ccc(Nc2nc(-c3ccc(F)cc3)c(F)s2)cc1OCC1CCCCC1 [Cmp 61, N-(3-(cyclohexylmethoxy)-4-methylphenyl)-5-fluoro-4-(4-fluorophenyl)thiazol-2-amine] | < 1
9 | CCCCCCCCOc1cc(Nc2nc(-c3ccc(F)cc3)c(F)s2)ccc1C [Cmp 62, 5-fluoro-4-(4-fluorophenyl)-N-(4-methyl-3-(octyloxy)phenyl)thiazol-2-amine] | < 1
10 | COc1ncc(-c2nc(Nc3ccc(C)c(OCC4CCCCC4)c3)sc2F)cn1 [Cmp 63, N-(3-(cyclohexylmethoxy)-4-methylphenyl)-5-fluoro-4-(2-methoxypyrimidin-5-yl)thiazol-2-amine] | < 1
11 | CCCCCc1nc2cc(Nc3nc(-c4cccnc4)cs3)ccc2o1 [Cmp 64] | < 1
12 | CCCCCc1nc2cc(Nc3nc(-c4cccnc4)c(F)s3)ccc2o1 [Cmp 65, N-(5-fluoro-4-(pyridin-3-yl)thiazol-2-yl)-2-pentylbenzo[d]oxazol-5-amine] | < 1
13 | CCCCCc1nc2ccc(Nc3nc(-c4cccnc4)cs3)cc2o1 [Cmp 66, 2-pentyl-N-(4-(pyridin-3-yl)thiazol-2-yl)benzo[d]oxazol-6-amine] | < 1
14 | CCCCCc1nc2ccc(Nc3nc(-c4cccnc4)c(F)s3)cc2o1 [Cmp 67, N-(5-fluoro-4-(pyridin-3-yl)thiazol-2-yl)-2-pentylbenzo[d]oxazol-6-amine] | < 1
15 | CCCCCCCCOc1cc(Nc2nc(-c3cccnc3)cs2)ccc1C(F)(F)F [Cmp 68, N-(3-(octyloxy)-4-(trifluoromethyl)phenyl)-4-(pyridin-3-yl)thiazol-2-amine] | < 1
16 | CCCCCOc1cc(Nc2nc(-c3cccnc3)cs2)ccc1C(F)(F)F [Cmp 69, N-(3-(pentyloxy)-4-(trifluoromethyl)phenyl)-4-(pyridin-3-yl)thiazol-2-amine] | < 1
17 | Fc1sc(Nc2ccc(Oc3ccccc3)c(C(F)(F)F)c2)nc1-c1cccnc1 [Cmp 70, 5-fluoro-N-(4-phenoxy-3-(trifluoromethyl)phenyl)-4-(pyridin-3-yl)thiazol-2-amine] | < 1

Row | Compound | EC50 [µM]
18 | CCCCCCCCOc1cc(Nc2nc(-c3cnc(OC)nc3)cs2)ccc1C(F)(F)F [Cmp 71, 4-(2-methoxypyrimidin-5-yl)-N-(3-(octyloxy)-4-(trifluoromethyl)phenyl)thiazol-2-amine] | < 1
19 | CCCCCOc1cc(Nc2nc(-c3cnc(OC)nc3)cs2)ccc1C(F)(F)F [Cmp 72, 4-(2-methoxypyrimidin-5-yl)-N-(3-(pentyloxy)-4-(trifluoromethyl)phenyl)thiazol-2-amine] | < 1
20 | Cc1ccc(CCCCCc2ccc(Nc3nc(-c4cccnc4)cs3)cc2C(F)(F)F)cc1 [Cmp 73, 4-(pyridin-3-yl)-N-(4-(5-p-tolylpentyl)-3-(trifluoromethyl)phenyl)thiazol-2-amine] | < 1
21 | COc1ncc(-c2csc(Nc3ccc(CCCCCc4ccc(C)cc4)c(C(F)(F)F)c3)n2)cn1 [Cmp 74, 4-(2-methoxypyrimidin-5-yl)-N-(4-(5-p-tolylpentyl)-3-(trifluoromethyl)phenyl)thiazol-2-amine] | < 1
22 | CCCCCCCCOc1cc(Nc2nc(-c3ccc(F)cc3)cs2)ccc1C(F)(F)F [Cmp 75, 4-(4-fluorophenyl)-N-(3-(octyloxy)-4-(trifluoromethyl)phenyl)thiazol-2-amine] | < 1
23 | CCCCCOc1cc(Nc2nc(-c3ccc(F)cc3)cs2)ccc1C(F)(F)F [Cmp 76, 4-(4-fluorophenyl)-N-(3-(pentyloxy)-4-(trifluoromethyl)phenyl)thiazol-2-amine] | < 1
24 | CCCCCOc1cc(Nc2nc(-c3cnc(OC)nc3)c(F)s2)ccc1C(F)(F)F [Cmp 77, 5-fluoro-4-(2-methoxypyrimidin-5-yl)-N-(3-(pentyloxy)-4-(trifluoromethyl)phenyl)thiazol-2-amine] | < 1
25 | CCCCCCCCOc1cc(Nc2nc(-c3cccnc3)c(F)s2)ccc1C(F)(F)F [Cmp 78, 5-fluoro-N-(3-(octyloxy)-4-(trifluoromethyl)phenyl)-4-(pyridin-3-yl)thiazol-2-amine] | < 1
26 | CCCCCOc1cc(Nc2nc(-c3cccnc3)c(F)s2)ccc1C(F)(F)F [Cmp 79, 5-fluoro-N-(3-(pentyloxy)-4-(trifluoromethyl)phenyl)-4-(pyridin-3-yl)thiazol-2-amine] | 1 to 10
27 | CCCCCCCCc1cc(Nc2nc(-c3cccnc3)cs2)cc(C(F)(F)F)c1 [Cmp 80, N-(3-octyl-5-(trifluoromethyl)phenyl)-4-(pyridin-3-yl)thiazol-2-amine] | < 1
28 | CC(=O)c1cc(Nc2nc(-c3cccnc3)c(F)s2)ccc1Oc1ccccc1 [Cmp 81, 1-(5-(5-fluoro-4-(pyridin-3-yl)thiazol-2-ylamino)-2-phenoxyphenyl)ethanone] | < 1
29 | CC(F)(F)c1cc(Nc2nc(-c3cccnc3)c(F)s2)ccc1Oc1ccccc1 [Cmp 82, N-(3-(1,1-difluoroethyl)-4-phenoxyphenyl)-5-fluoro-4-(pyridin-3-yl)thiazol-2-amine] | < 1
30 | CC(=O)c1cc(Nc2nc(-c3cccnc3)cs2)ccc1Oc1ccc(Cl)cc1 [Cmp 84, 1-(2-(4-chlorophenoxy)-5-(4-(pyridin-3-yl)thiazol-2-ylamino)phenyl)ethanone] | < 1
31 | CC(=O)c1cc(Nc2nc(-c3cccnc3)cs2)ccc1Oc1ccccc1 [Cmp 85, 1-(2-phenoxy-5-(4-(pyridin-3-yl)thiazol-2-ylamino)phenyl)ethanone] | < 1
32 | COc1ncc(-c2csc(Nc3ccc(Oc4ccccc4)c(C(C)=O)c3)n2)cn1 [Cmp 86, 1-(5-(4-(2-methoxypyrimidin-5-yl)thiazol-2-ylamino)-2-phenoxyphenyl)ethanone] | < 1
33 | CCc1ccc(Oc2ccc(Nc3nc(-c4cnc(OC)nc4)cs3)cc2C(C)=O)cc1 [Cmp 87, 1-(2-(4-ethylphenoxy)-5-(4-(2-methoxypyrimidin-5-yl)thiazol-2-ylamino)phenyl)ethanone] | < 1

From patent US8183263B2 (priority 2007, dated 2012)
